Assay results: patent publication US8846698B2, “Pyrrolo[2,3-d]pyrimidine tropomysin-related kinase inhibitors” (Pfizer Limited, priority 2011, dated 2014)

target: TRKA (Homo sapiens (Human), UniProt P04629); assay: Isolated TRK enzyme assay (HTRF KinEASE-TK), TRKA; format: biochemical; conditions: read-out: Trka enzyme (IC50)
Sequence (P04629 441-796): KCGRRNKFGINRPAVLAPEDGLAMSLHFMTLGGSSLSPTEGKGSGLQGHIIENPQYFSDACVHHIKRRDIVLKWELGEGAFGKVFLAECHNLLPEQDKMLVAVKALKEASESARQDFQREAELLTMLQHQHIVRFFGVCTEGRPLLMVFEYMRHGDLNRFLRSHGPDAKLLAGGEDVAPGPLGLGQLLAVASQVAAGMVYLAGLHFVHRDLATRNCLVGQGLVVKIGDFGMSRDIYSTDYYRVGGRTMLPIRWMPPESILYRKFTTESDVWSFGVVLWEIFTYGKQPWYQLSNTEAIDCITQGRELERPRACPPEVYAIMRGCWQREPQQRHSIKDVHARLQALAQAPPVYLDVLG

Structure (SMILES)	IC50
O=C(Cc1ccc2cccnc2c1)Nc1cncc(C(=O)c2cn(C(CO)CO)c3ncncc23)c1 [Example 272, N-(5-(7-(1,3-dihydroxypropan-2-yl)-7H-pyrrolo[2,3-d]pyrimidine-5-carbonyl)pyridin-3-yl)-2-(quinolin-7-yl)acetamide]	0.697 µM
Cc1ccc2ccc(CC(=O)Nc3cncc(C(=O)c4cn(C(CO)CO)c5ncncc45)c3)cc2n1 [Example 275, N-[5-({7-[2-hydroxy-1-(hydroxymethyl)ethyl]-7H-pyrrolo[2,3-d]pyrimidin-5-yl}carbonyl)pyridin-3-yl]-2-(2-methylquinolin-7-yl)acetamide]	5.1 µM
O=C(Cc1ccc(Cl)c(Cl)c1)Nc1cncc(C(=O)c2cn(C(CO)CO)c3ncncc23)c1 [Example 276, 2-(3,4-dichlorophenyl)-N-[5-({7-[2-hydroxy-1-(hydroxymethyl)ethyl]-7H-pyrrolo[2,3-d]pyrimidin-5-yl}carbonyl)pyridin-3-yl]acetamide]	0.295 µM
O=C(Cc1ccc(Cl)cc1Cl)Nc1cncc(C(=O)c2cn(C(CO)CO)c3ncncc23)c1 [Example 278, 2-(2,4-dichlorophenyl)-N-[5-({7-[2-hydroxy-1-(hydroxymethyl)ethyl]-7H-pyrrolo[2,3-d]pyrimidin-5-yl}carbonyl)pyridin-3-yl]acetamide]	0.0543 µM
O=C(Cc1ccc(Cl)cn1)Nc1cncc(C(=O)c2cn(C(CO)CO)c3ncncc23)c1 [Example 282, 2-(5-chloropyridin-2-yl)-N-[5-({7-[2-hydroxy-1-(hydroxymethyl)ethyl]-7H-pyrrolo[2,3-d]pyrimidin-5-yl}carbonyl)pyridin-3-yl]acetamide]	1.01 µM
CC(C)n1cc(C(=O)c2cncc(NC(=O)[C@@H](Cc3ccc(C(=O)c4ccccc4)cc3)NC(=O)OC(C)(C)C)c2)c2cncnc21 [Example 284, 4-benzoyl-N-alpha-(tert-butoxycarbonyl)-N-{5-[(7-isopropyl-7H-pyrrolo[2,3-d]pyrimidin-5-yl)carbonyl]pyridin-3-yl}-L-phenylalaninamide]	2.02 µM
CC(C)n1cc(C(=O)c2cncc(NC(=O)[C@H](N)Cc3ccc(C(=O)c4ccccc4)cc3)c2)c2cncnc21 [Example 285, 4-benzoyl-N-{5-[(7-isopropyl-7H-pyrrolo[2,3-d]pyrimidin-5-yl)carbonyl]pyridin-3-yl}-D-phenylalaninamide]	7.82 µM
CC(C)n1cc(C(=O)c2cncc(NC(=O)[C@@H](N)Cc3ccc(C(=O)c4ccccc4)cc3)c2)c2cncnc21 [Example 287, 4-benzoyl-N-{5-[(7-isopropyl-7H-pyrrolo[2,3-d]pyrimidin-5-yl)carbonyl]pyridin-3-yl}-L-phenylalaninamide]	4.35 µM
CC(C)n1cc(C(=O)c2cncc(NC(=O)Cc3cccc(C(=O)c4ccccc4)c3)c2)c2cncnc21 [Example 288, 2-(3-benzoylphenyl)-N-(5-(7-isopropyl-7H-pyrrolo[2,3-d]pyrimidine-5-carbonyl)pyridin-3-yl)acetamide]	0.0431 µM
CC(C)n1cc(C(=O)c2cncc(NC(=O)Cc3ccc(C(=O)c4ccccc4)cc3)c2)c2cncnc21 [Example 289, 2-(4-benzoylphenyl)-N-(5-(7-isopropyl-7H-pyrrolo[2,3-d]pyrimidine-5-carbonyl)pyridin-3-yl)acetamide]	1.37 µM

Results, then the compound that gave them:

IC50	Structure (SMILES)
0.342 µM	O=C(Cc1ccc(C(F)(F)F)cc1)Nc1cncc(C(=O)c2cn(C(CO)CO)c3ncncc23)c1 [Example 273, N-(5-(7-(1,3-dihydroxypropan-2-yl)-7H-pyrrolo[2,3-d]pyrimidine-5-carbonyl)pyridin-3-yl)-2-(4-(trifluoromethyl)phenyl)acetamide]
0.0386 µM	O=C(Cc1cccc(C(F)(F)F)c1)Nc1cncc(C(=O)c2cn(C(CO)CO)c3ncncc23)c1 [Example 274, N-(5-(7-(1,3-dihydroxypropan-2-yl)-7H-pyrrolo[2,3-d]pyrimidine-5-carbonyl)pyridin-3-yl)-2-(3-(trifluoromethyl)phenyl)acetamide]
0.434 µM	O=C(Cc1ccc(C(F)(F)F)c(F)c1)Nc1cncc(C(=O)c2cn(C(CO)CO)c3ncncc23)c1 [Example 277, 2-[3-fluoro-4-(trifluoromethyl)phenyl]-N-[5-({7-[2-hydroxy-1-(hydroxymethyl)ethyl]-7H-pyrrolo[2,3-d]pyrimidin-5-yl}carbonyl)pyridin-3-yl]acetamide]
0.439 µM	O=C(Cc1cccc(OC(F)(F)F)c1)Nc1cncc(C(=O)c2cn(C(CO)CO)c3ncncc23)c1 [Example 279, N-[5-({7-[2-hydroxy-1-(hydroxymethyl)ethyl]-7H-pyrrolo[2,3-d]pyrimidin-5-yl}carbonyl)pyridin-3-yl]-2-[3-(trifluoromethoxy)phenyl]acetamide]
0.498 µM	O=C(Cc1ccc(OC(F)(F)F)cc1)Nc1cncc(C(=O)c2cn(C(CO)CO)c3ncncc23)c1 [Example 280, N-[5-({7-[2-hydroxy-1-(hydroxymethyl)ethyl]-7H-pyrrolo[2,3-d]pyrimidin-5-yl}carbonyl)pyridin-3-yl]-2-[4-(trifluoromethoxy)phenyl]acetamide]
0.161 µM	O=C(Nc1cncc(C(=O)c2cn(C(CO)CO)c3ncncc23)c1)c1cc(F)cc(C(F)(F)F)c1 [Example 281, 3-fluoro-N-[5-({7-[2-hydroxy-1-(hydroxymethyl)ethyl]-7H-pyrrolo[2,3-d]pyrimidin-5-yl}carbonyl)pyridin-3-yl]-5-(trifluoromethyl)benzamide]
0.297 µM	O=C(Cn1ccc(C(F)(F)F)n1)Nc1cncc(C(=O)c2cn(C(CO)CO)c3ncncc23)c1 [Example 283, N-[5-({7-[2-hydroxy-1-(hydroxymethyl)ethyl]-7H-pyrrolo[2,3-d]pyrimidin-5-yl}carbonyl)pyridin-3-yl]-2-[3-(trifluoromethyl)-1H-pyrazol-1-yl]acetamide]
0.167 µM	CC(C)n1cc(C(=O)c2cncc(NC(=O)c3cccc(C4(C(F)(F)F)N=N4)c3)c2)c2cncnc21 [Example 290, N-{5-[(7-isopropyl-7H-pyrrolo[2,3-d]pyrimidin-5-yl)carbonyl]pyridin-3-yl}-3-[3-(trifluoromethyl)-3H-diaziren-3-yl]benzamide]
3.23 µM	CC(C)n1cc(C(=O)c2cncc(NC(=O)c3ccc(C4(C(F)(F)F)N=N4)cc3)c2)c2cncnc21 [Example 291, N-{5-[(7-isopropyl-7H-pyrrolo[2,3-d]pyrimidin-5-yl)carbonyl]pyridin-3-yl}-4-[3-(trifluoromethyl)-3H-diaziren-3-yl]benzamide]
0.0377 µM	CC(C)n1cc(C(=O)c2cncc(NC(=O)c3cccc(C(=O)C(F)(F)F)c3)c2)c2cncnc21 [Example 292, N-{5-[(7-isopropyl-7H-pyrrolo[2,3-d]pyrimidin-5-yl)carbonyl]pyridin-3-yl}-3-(trifluoroacetyl)benzamide]
0.0202 µM	Cn1cc(C(=O)c2cncc(NC(=O)Nc3ccc(Cl)cc3)c2)c2cncnc21 [Example 293, 1-(4-chlorophenyl)-3-{5-[(7-methyl-7H-pyrrolo[2,3-d]pyrimidin-5-yl)carbonyl]pyridin-3-yl}urea]
0.0614 µM	Cn1cc(C(=O)c2cncc(NC(=O)Nc3ccc(C(F)(F)F)cc3)c2)c2cncnc21 [Example 294, 1-{5-[(7-methyl-7H-pyrrolo[2,3-d]pyrimidin-5-yl)carbonyl]pyridin-3-yl}-3-[4-(trifluoromethyl)phenyl]urea]
